Reference: ChEMBL document CHEMBL2176989, “Design, synthesis, and pharmacological evaluation of piperidin-4-yl amino aryl sulfonamides: novel, potent, selective, orally active, and brain penetrant 5-HT₆ receptor antagonists” (J Med Chem, 2012)
Activity calls are given as the source filed them. The rule behind the calls is not given here.

Columns and labels:
[1] = target: D(2) dopamine receptor (Homo sapiens, UniProt P14416); assay: Binding affinity to dopamine D2 receptor
[2] = target: T1, 5-hydroxytryptamine receptor 1A (Homo sapiens, UniProt P08908); assay: Binding affinity to 5HT1A receptor
T1 sequence (P08908 whole entry): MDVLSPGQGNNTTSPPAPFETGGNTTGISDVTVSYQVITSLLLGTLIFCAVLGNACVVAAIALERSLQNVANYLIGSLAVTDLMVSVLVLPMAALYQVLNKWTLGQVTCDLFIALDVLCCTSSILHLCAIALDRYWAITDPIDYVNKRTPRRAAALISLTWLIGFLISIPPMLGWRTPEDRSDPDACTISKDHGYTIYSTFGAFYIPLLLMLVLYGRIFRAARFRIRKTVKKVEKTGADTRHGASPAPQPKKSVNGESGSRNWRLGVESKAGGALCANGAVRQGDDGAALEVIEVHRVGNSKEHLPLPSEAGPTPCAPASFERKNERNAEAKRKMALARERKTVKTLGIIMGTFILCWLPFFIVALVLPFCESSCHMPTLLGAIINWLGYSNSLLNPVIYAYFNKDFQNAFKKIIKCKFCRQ

[3] = Drug metabolism in Wistar rat liver microsomes at 2.5 uM at 30 mins by LC-MS/MS analysis; assay type: ADME, Microsome; conditions: read-out: Drug metabolism
[4] = Ratio of drug uptake in brain to plasma in Wistar rat at 10 mg/kg, po after 1 hr; assay type: ADME, organism-based; design: dose 10 mg/kg, route oral; conditions: read-out: BPR
[5] = Apparent volume of distribution in beagle dog at 1 mg/kg, iv; assay type: ADME, organism-based, Canis lupus familiaris; design: dose 1 mg/kg, route intravenous; conditions: in vivo, read-out: Vz
[6] = tested on: Rattus norvegicus; assay: Procognitive activity in Wistar rat assessed as reversal of time delay-induced memory deficit at 0.3 mg/kg, po by object recognition test; assay type: functional, organism-based; design: dose 0.3 mg/kg
[7] = target: Sodium-dependent serotonin transporter (Homo sapiens, UniProt P31645); assay: Binding affinity to SERT
[8] = Clearance in Wistar rat at 5 mg/kg, iv; assay type: ADME, organism-based; design: dose 5 mg/kg, route intravenous; conditions: in vivo
[9] = target: 5-hydroxytryptamine receptor 2A (Homo sapiens, UniProt P28223); assay: Binding affinity to 5HT2A receptor
[10] = target: 5-hydroxytryptamine receptor 6 (Homo sapiens) (UniProt P50406); assay: Antagonist activity at human recombinant 5HT6 receptor expressed in CHO cells assessed as inhibition of 5HT-induced luciferase activity after 4 hrs by reporter gene assay; assay type: functional, cell-based
[11] = Cmax in fasted beagle dog at 3 mg/kg, po; assay type: ADME, organism-based, Canis lupus familiaris; design: dose 3 mg/kg, route oral; conditions: in vivo
[12] = Half life in Wistar rat at 5 mg/kg, iv; assay type: ADME, organism-based; design: dose 5 mg/kg, route intravenous; conditions: in vivo
[13] = target: Sodium-dependent dopamine transporter (Homo sapiens, UniProt Q01959); assay: Binding affinity to dopamine transporter
[14] = AUC (0 to 24 hrs) in fasted beagle dog at 3 mg/kg, po; assay type: ADME, organism-based, Canis lupus familiaris; design: time < 24 hr, dose 3 mg/kg, route oral; conditions: plasma
[15] = Clearance in beagle dog at 1 mg/kg, iv; assay type: ADME, organism-based, Canis lupus familiaris; design: dose 1 mg/kg, route intravenous; conditions: in vivo
[16] = target: T2, 5-hydroxytryptamine receptor 2C (Homo sapiens, UniProt P28335); assay: Binding affinity to 5HT2C receptor
T2 sequence (P28335 whole entry): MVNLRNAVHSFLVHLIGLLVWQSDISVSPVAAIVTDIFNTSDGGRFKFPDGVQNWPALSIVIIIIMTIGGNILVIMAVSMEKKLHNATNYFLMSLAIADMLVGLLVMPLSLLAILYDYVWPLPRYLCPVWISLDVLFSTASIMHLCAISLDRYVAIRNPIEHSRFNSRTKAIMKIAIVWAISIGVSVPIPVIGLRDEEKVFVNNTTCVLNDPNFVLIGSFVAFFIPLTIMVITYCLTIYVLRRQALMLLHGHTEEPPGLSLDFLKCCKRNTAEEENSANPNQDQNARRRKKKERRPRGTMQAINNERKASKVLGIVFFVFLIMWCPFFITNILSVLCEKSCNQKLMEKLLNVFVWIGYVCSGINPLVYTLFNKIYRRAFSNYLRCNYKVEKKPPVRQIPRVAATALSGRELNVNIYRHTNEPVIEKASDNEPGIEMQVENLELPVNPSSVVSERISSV

[17] = Tmax in fasted Wistar rat at 5 mg/kg, po; assay type: ADME, organism-based; design: dose 5 mg/kg, route oral; conditions: in vivo
[18] = tested on: Rattus norvegicus; assay: Procognitive activity in Wistar rat assessed as increase in acetylcholine level in medial prefrontal cortex at 10 mg/kg, sc administered as an acute dose measured up to 4 hrs by brain microdialysis method; assay type: functional, organism-based; design: dose 10 mg/kg
[19] = Tmax in fasted beagle dog at 3 mg/kg, po; assay type: ADME, organism-based, Canis lupus familiaris; design: dose 3 mg/kg, route oral; conditions: in vivo
[20] = Oral bioavailability in fasted Wistar rat at 5 mg/kg; assay type: ADME, organism-based; conditions: in vivo
[21] = target: Cytochrome P450 2D6 (Homo sapiens, UniProt P10635); assay: Inhibition of CYP2D6 in human liver microsomes using dextromethorphan as substrate after 10 mins by LC-MS/MS analysis in presence of NADPH
[22] = target: T3, 5-hydroxytryptamine receptor 3A (Homo sapiens, UniProt P46098); assay: Binding affinity to 5HT3 receptor
T3 sequence (P46098 whole entry): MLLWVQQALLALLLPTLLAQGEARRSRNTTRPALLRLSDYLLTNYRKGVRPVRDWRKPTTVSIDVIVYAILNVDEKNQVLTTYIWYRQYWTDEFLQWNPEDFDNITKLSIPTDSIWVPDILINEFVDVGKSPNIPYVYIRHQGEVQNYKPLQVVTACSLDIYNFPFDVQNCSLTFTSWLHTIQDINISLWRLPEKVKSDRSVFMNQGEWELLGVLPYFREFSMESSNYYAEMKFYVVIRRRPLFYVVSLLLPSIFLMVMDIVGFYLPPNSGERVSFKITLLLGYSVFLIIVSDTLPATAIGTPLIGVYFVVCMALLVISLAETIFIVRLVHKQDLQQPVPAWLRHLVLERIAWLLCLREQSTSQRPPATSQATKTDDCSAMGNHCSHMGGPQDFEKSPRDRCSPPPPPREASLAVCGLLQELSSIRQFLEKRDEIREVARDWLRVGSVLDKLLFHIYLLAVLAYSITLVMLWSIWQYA

[23] = target: 5-hydroxytryptamine receptor 4 (Homo sapiens, UniProt Q13639); assay: Binding affinity to 5HT4 receptor
[24] = tested on: Rattus norvegicus; assay: Procognitive activity in Wistar rat assessed as reversal of time delay-induced memory deficit at 1 to 10 mg/kg, po by object recognition test; assay type: functional, organism-based
[25] = target: Histamine H1 receptor (Homo sapiens, UniProt P35367); assay: Binding affinity to histamine H1 receptor
[26] = Oral bioavailability in fasted beagle dog at 3 mg/kg; assay type: ADME, organism-based, Canis lupus familiaris; conditions: in vivo
[27] = target: Cytochrome P450 3A4 (Homo sapiens, UniProt P08684); assay: Inhibition of CYP3A4 in human liver microsomes using midazolam as substrate after 5 mins by LC-MS/MS analysis in presence of NADPH
[28] = AUC (0 to 24 hrs) in beagle dog at 1 mg/kg, iv; assay type: ADME, organism-based, Canis lupus familiaris; design: time < 24 hr, dose 1 mg/kg, route intravenous; conditions: plasma
[29] = tested on: Rattus norvegicus; assay: Procognitive activity in sc dosed Wistar rat assessed as increase in acetylcholine level in medial prefrontal cortex administered as an acute dose measured up to 4 hrs by brain microdialysis method; assay type: functional, organism-based
[30] = Drug metabolism in human liver microsomes at 2.5 uM at 30 mins by LC-MS/MS analysis; assay type: ADME, Microsome; conditions: read-out: Drug metabolism
[31] = AUC (0 to 24 hrs) in Wistar rat at 5 mg/kg, iv; assay type: ADME, organism-based; design: time < 24 hr, dose 5 mg/kg, route intravenous; conditions: plasma

Cytochrome P450 2D6, sequence (P10635 whole entry): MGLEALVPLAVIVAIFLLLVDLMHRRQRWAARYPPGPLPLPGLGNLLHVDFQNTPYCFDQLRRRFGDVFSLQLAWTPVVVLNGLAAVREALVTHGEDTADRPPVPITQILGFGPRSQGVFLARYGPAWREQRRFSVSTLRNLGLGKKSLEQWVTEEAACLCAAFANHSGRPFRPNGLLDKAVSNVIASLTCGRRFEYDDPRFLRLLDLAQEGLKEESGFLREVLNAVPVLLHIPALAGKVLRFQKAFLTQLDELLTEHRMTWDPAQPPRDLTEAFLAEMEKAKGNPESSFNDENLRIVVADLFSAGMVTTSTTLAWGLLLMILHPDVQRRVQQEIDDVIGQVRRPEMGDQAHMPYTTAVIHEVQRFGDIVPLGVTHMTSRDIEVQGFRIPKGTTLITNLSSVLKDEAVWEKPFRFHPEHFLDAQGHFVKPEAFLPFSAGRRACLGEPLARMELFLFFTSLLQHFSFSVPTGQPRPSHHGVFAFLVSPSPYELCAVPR
Sodium-dependent serotonin transporter, sequence (P31645 whole entry): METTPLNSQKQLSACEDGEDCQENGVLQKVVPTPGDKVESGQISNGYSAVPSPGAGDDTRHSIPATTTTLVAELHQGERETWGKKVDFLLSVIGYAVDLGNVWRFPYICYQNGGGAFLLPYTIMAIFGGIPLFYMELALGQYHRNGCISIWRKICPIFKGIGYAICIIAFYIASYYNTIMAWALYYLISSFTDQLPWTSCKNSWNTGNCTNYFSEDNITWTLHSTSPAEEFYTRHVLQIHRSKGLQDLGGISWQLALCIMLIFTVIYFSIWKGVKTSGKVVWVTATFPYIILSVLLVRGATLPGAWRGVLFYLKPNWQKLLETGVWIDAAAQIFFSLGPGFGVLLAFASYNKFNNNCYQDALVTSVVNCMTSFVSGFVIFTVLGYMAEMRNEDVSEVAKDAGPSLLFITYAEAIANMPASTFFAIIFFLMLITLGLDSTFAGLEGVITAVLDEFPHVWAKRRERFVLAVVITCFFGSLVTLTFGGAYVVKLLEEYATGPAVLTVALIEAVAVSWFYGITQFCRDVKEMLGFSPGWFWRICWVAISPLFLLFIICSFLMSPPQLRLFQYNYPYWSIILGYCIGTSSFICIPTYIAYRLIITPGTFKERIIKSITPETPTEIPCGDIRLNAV
Cytochrome P450 3A4, sequence (P08684 whole entry): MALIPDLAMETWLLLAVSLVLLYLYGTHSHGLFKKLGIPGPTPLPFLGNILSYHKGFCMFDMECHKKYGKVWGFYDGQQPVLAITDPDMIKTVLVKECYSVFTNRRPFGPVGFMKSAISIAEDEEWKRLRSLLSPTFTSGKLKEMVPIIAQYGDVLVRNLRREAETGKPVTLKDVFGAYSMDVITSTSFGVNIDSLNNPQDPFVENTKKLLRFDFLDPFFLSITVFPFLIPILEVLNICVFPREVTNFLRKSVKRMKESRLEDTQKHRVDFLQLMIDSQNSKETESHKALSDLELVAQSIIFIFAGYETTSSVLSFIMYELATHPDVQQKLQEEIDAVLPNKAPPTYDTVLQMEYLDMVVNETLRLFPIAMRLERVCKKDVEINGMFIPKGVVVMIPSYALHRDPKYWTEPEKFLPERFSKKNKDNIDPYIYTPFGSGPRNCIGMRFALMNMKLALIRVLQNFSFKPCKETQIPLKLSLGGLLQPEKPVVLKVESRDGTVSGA
Histamine H1 receptor, sequence (P35367 whole entry): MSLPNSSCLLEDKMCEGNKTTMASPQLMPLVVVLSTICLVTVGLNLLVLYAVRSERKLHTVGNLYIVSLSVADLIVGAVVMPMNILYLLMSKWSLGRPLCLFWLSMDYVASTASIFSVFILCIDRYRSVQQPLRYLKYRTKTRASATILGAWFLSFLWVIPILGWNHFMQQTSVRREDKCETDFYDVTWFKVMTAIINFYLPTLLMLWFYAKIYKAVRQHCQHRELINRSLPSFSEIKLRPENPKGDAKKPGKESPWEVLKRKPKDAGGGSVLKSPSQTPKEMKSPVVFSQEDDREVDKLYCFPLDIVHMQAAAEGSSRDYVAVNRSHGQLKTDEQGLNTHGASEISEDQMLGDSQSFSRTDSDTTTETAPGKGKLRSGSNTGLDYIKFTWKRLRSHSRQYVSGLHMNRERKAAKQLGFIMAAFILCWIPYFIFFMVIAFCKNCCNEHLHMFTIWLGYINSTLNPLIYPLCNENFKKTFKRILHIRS
5-hydroxytryptamine receptor 6 (Homo sapiens), sequence (P50406 whole entry): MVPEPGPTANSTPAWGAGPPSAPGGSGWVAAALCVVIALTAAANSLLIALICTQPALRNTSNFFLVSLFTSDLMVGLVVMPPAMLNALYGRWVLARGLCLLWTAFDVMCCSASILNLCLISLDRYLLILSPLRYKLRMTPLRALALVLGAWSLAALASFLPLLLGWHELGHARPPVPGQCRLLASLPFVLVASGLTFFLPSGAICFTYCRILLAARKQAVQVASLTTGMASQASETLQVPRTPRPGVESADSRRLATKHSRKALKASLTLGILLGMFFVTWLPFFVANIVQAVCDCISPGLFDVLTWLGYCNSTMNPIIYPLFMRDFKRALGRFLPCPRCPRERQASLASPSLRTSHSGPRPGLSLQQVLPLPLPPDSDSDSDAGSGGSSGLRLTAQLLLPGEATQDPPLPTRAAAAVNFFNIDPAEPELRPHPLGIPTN
5-hydroxytryptamine receptor 4, sequence (Q13639 whole entry): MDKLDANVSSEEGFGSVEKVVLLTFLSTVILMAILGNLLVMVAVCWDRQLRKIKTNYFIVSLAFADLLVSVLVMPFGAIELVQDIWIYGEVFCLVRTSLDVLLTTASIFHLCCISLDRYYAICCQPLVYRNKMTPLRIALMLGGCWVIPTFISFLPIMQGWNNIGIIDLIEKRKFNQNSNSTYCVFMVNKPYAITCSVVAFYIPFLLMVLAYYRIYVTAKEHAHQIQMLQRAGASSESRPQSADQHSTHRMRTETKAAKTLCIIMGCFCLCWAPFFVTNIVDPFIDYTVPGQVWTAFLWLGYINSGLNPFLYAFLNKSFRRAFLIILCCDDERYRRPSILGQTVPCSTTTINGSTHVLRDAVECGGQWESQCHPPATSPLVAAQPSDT
D(2) dopamine receptor, sequence (P14416 whole entry): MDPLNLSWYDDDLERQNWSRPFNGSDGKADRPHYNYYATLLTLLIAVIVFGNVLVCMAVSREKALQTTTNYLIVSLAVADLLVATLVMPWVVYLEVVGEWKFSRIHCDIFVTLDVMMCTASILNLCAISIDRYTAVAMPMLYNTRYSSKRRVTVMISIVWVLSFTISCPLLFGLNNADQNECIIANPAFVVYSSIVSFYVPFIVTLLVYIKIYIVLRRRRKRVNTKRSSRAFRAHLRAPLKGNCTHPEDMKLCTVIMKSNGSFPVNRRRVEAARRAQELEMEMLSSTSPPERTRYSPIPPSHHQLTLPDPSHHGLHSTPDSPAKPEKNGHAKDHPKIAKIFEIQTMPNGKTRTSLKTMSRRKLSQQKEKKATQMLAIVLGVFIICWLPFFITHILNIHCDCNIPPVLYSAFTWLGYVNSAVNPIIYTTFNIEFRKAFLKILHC
5-hydroxytryptamine receptor 2A, sequence (P28223 whole entry): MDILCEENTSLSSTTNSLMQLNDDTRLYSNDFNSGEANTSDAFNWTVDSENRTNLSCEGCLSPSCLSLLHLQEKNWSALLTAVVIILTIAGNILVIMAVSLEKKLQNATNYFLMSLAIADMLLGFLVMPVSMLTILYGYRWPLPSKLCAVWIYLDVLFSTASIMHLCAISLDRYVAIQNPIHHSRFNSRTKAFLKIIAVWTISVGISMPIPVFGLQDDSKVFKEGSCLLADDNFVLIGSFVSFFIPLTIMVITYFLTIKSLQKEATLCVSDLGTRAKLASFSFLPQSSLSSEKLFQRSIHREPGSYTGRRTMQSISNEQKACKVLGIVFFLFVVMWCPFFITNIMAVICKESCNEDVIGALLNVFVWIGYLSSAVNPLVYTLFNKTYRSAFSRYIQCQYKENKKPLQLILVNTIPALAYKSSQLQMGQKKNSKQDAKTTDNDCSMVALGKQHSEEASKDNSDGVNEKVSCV
Sodium-dependent dopamine transporter, sequence (Q01959 whole entry): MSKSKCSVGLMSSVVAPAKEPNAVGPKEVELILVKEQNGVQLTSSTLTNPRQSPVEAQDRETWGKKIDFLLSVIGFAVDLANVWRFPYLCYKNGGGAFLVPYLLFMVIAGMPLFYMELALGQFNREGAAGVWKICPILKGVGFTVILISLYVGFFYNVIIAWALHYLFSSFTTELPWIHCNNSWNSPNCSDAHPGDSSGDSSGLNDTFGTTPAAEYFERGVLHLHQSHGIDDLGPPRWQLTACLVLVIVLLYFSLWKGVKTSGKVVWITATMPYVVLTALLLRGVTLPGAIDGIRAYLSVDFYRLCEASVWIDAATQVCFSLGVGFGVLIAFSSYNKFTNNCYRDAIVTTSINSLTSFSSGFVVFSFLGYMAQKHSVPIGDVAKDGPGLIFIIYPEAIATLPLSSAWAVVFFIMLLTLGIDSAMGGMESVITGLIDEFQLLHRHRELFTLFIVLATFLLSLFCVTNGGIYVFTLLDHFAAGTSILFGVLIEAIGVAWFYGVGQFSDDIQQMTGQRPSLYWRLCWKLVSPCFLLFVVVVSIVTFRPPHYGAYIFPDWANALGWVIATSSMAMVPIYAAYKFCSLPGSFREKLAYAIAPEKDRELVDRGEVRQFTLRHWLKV

## COc1ccc(S(=O)(=O)n2cc(C)c3cc(Cl)cnc32)cc1NC1CCN(C)CC1
[1]
  Ki: 1810 nM
[2]
  EC50: > 10000 nM
[3]
  metabolised at 0.5 h, 2.5 µM: 76%
[4]
  Kp at 1 h: 0.9
[5]
  Vd: 2.1 L/kg
[6]
  Activity: Active
[7]
  Ki: > 10000 nM
[8]
  clearance: 64 mL/min/kg
[9]
  Ki: 2370 nM
[10]
  Kb: 0.04 nM
[11]
  Cmax: 549 ng/mL
[12]
  half-life: 1.7 h
[13]
  Ki: 3220 nM
[14]
  AUC(0-t) at 24 h: 3630 ng·h/mL
[15]
  clearance: 12 mL/min/kg
[16]
  Ki: 2240 nM
[17]
  Tmax: 1 h
[18]
  Activity: Active
[19]
  Tmax: 1.7 h
[20]
  bioavailability: 29%
[21]
  IC50: > 45000 nM
[22]
  IC50: > 10000 nM
[23]
  EC50: > 10000 nM
[24]
  Activity: Active
[25]
  Ki: 586 nM
[26]
  bioavailability: 92%
[27]
  IC50: 10000 nM
[28]
  AUC(0-t) at 24 h: 1400 ng·h/mL
[29]
  Activity: Dose-dependent effect
[30]
  metabolised at 0.5 h, 2.5 µM: 72%
[31]
  AUC(0-t) at 24 h: 1310 ng·h/mL
